Measurements as given in ChEMBL document CHEMBL1201862, “PubChem BioAssay data set” (2004).
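Five concentrations, 48 hours, 96-well plates. GI50 is the concentration that inhibits growth by half.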 Activity calls are given as the source filed them. Rule as the data show it: active = GI50 up to about 1.1 µM and inactive = higher.

What was measured:
Experiment in all cases: DTP human tumour cell line panel, 48 h
[1] = system: SW-620
[2] = system: K562
[3] = system: OVCAR-8
[4] = system: HCT-116
[5] = system: NCI-H522
[6] = system: EKVX
[7] = system: RPMI-8226
[8] = system: SNB-19
[9] = system: DMS-273
[10] = system: HOP-92
[11] = system: SK-OV-3
[12] = system: A549
[13] = system: NCI-H226
[14] = system: A498
[15] = system: UACC-62
[16] = system: OVCAR-3
[17] = system: SN12C
[18] = system: CAKI-1
[19] = system: DU-145
[20] = system: Hs-578T

Measured: GI50

O=C(c1ccccc1)C1(Br)S(=O)(=O)OCCOS1(=O)=O
inactive: [1] > 100 µM | [2] > 100 µM | [3] > 100 µM | [4] > 100 µM | [5] > 100 µM | [6] > 100 µM | [7] > 100 µM | [8] > 100 µM | [9] > 100 µM | [10] > 100 µM | [11] > 100 µM | [12] > 100 µM | [13] > 100 µM | [14] > 100 µM | [15] > 100 µM | [16] > 100 µM | [17] > 100 µM

Cc1n[nH]c(=S)n(C)c1=S
inactive: [1] > 100 µM | [2] > 100 µM | [3] > 100 µM | [4] > 100 µM | [5] > 100 µM | [6] 56.1 µM | [7] > 100 µM | [8] > 100 µM | [9] > 100 µM | [10] 91.2 µM | [11] > 100 µM | [12] > 100 µM | [13] > 100 µM | [14] > 100 µM | [15] > 100 µM | [16] > 100 µM | [17] > 100 µM

Oc1ccc(Br)cc1/C=N/c1ccc(Oc2ccc(/N=C/c3cc(Br)ccc3O)cc2)cc1
inactive: [1] > 19.6 µM | [18] > 19.6 µM | [2] > 19.6 µM | [3] > 19.6 µM | [4] > 19.6 µM | [5] > 19.6 µM | [6] > 19.6 µM | [7] > 19.6 µM | [8] > 19.6 µM | [9] > 19.6 µM | [10] > 19.6 µM | [11] > 19.6 µM | [12] > 19.6 µM | [13] > 19.6 µM | [14] > 19.6 µM | [15] > 19.6 µM | [16] > 19.6 µM | [17] > 19.6 µM

C[C@@]1(O)CC[C@]2(C)C3CCCC3[C@H]12 (stereo partly specified)
inactive: [1] > 100 µM | [18] > 100 µM | [2] > 100 µM | [3] > 100 µM | [4] > 100 µM | [5] > 100 µM | [6] > 100 µM | [7] > 100 µM | [8] > 100 µM | [9] > 100 µM | [10] > 100 µM | [11] > 100 µM | [12] > 100 µM | [13] > 100 µM | [14] > 100 µM | [15] > 100 µM | [16] > 100 µM | [17] > 100 µM

COc1cc([C@@H]2c3cc4c(cc3[C@@H](NC(=O)c3ccc([N+](=O)[O-])cc3)C3COC(=O)[C@@H]32)OCO4)cc(OC)c1O (stereo partly specified)
inactive: [14] 1.28 µM | [16] 1.76 µM
active: [1] 0.147 µM | [18] 0.569 µM | [2] 0.889 µM | [3] 0.923 µM | [4] 0.678 µM | [5] 0.508 µM | [6] 0.975 µM | [7] 0.256 µM | [8] 0.315 µM | [9] 0.111 µM | [10] 0.7 µM | [11] 0.334 µM | [12] 0.0189 µM | [13] 0.104 µM | [15] 0.241 µM | [17] 0.215 µM

COc1cc(/C=C/c2ccc(OC)c(O)c2)cc(OC)c1
inactive: [1] 3.82 µM | [18] 25.5 µM | [2] 2.43 µM | [3] 5.92 µM | [4] 3.4 µM | [5] 1.69 µM | [6] 9.66 µM | [7] 2.19 µM | [8] 3.87 µM | [9] 15.2 µM | [10] 7.71 µM | [11] 36.1 µM | [12] 4.82 µM | [13] 3.45 µM | [14] 29.4 µM | [15] 3.15 µM | [16] 2.16 µM | [17] 8.51 µM

FC(F)(F)c1ccc(C2SCc3nc4ccccc4n32)cc1 (stereo unspecified)
active: [10] 1.11 µM
inactive: [1] > 100 µM | [18] > 10 µM | [2] 3.75 µM | [3] > 100 µM | [4] 27.9 µM | [5] > 10 µM | [6] 29.7 µM | [7] 12.4 µM | [8] > 100 µM | [9] 33.8 µM | [11] 18.2 µM | [12] 41.8 µM | [13] > 100 µM | [14] 81.8 µM | [15] 26.4 µM | [16] > 10 µM | [17] > 100 µM

CC(C)(CN1CCCCC1)C(=O)/C=C/c1ccc(/C=C/C(=O)C(C)(C)CN2CCCCC2)cc1
inactive: [6] 1.71 µM | [8] 1.35 µM | [11] 1.57 µM | [19] 1.94 µM | [13] 1.84 µM | [14] 1.6 µM
active: [1] 0.112 µM | [18] 0.303 µM | [2] 0.103 µM | [3] 1.02 µM | [4] 0.303 µM | [5] 0.0454 µM | [7] 0.193 µM | [9] 0.361 µM | [10] 0.333 µM | [12] 0.933 µM | [15] 1.02 µM | [16] 0.369 µM | [20] 0.42 µM | [17] 0.208 µM

CCOc1ccc2c(c1)[n+]([O-])c(-c1ccc(Cl)cc1)c(N)[n+]2[O-]
inactive: [1] > 100 µM | [18] > 100 µM | [2] > 100 µM | [3] > 100 µM | [4] > 100 µM | [5] 34.4 µM | [6] 95.7 µM | [7] 10.8 µM | [8] > 100 µM | [9] > 100 µM | [10] > 100 µM | [11] > 100 µM | [12] > 100 µM | [13] > 100 µM | [14] > 100 µM | [16] > 100 µM | [17] > 100 µM

NC1=NN(c2ccccc2)C(=O)C1/C(=N\NC(=O)c1cc2ccccc2cc1O)C(=O)Nc1ccc(Cl)cc1 (stereo unspecified)
inactive: [1] 32.1 µM | [18] 31 µM | [2] 10.1 µM | [3] 20.8 µM | [4] 11.9 µM | [5] 20.4 µM | [6] 22.8 µM | [7] 22.6 µM | [8] 37.8 µM | [9] 20.2 µM | [10] 23.1 µM | [11] 51.5 µM | [12] 44.5 µM | [13] 23.6 µM | [14] 24.2 µM | [15] 19 µM | [16] 10.9 µM | [17] 36.8 µM

CN(C)c1n/c(=N/Cc2ccco2)ss1
active: [5] 0.307 µM
inactive: [1] 26.2 µM | [18] 30.5 µM | [2] 3.77 µM | [3] 31.7 µM | [4] 8.97 µM | [6] 37.9 µM | [7] 1.79 µM | [8] 60.5 µM | [9] 4.53 µM | [11] 55.6 µM | [12] 15.6 µM | [19] > 66.5 µM | [13] 62.2 µM | [14] > 78 µM | [15] 5.32 µM | [16] 8.97 µM | [20] 29.6 µM | [17] 31.6 µM

N#Cc1c2ccccc2c(Cc2ccc3c(c2)OCCOCCOCCOCCOCCO3)c2ccccc12
inactive: [1] 6.71 µM | [18] 10.1 µM | [2] 3.15 µM | [3] 5.65 µM | [4] 6.12 µM | [5] 10.8 µM | [6] 16.3 µM | [7] 3.11 µM | [8] 9.66 µM | [9] 4.68 µM | [10] 3.99 µM | [11] 13.6 µM | [12] 4.29 µM | [13] 11.9 µM | [14] 13.3 µM | [15] 6.41 µM | [16] 4.23 µM | [17] 10.1 µM
